Columns and labels:
[1] = olive oil-loaded mice, 6 hours; cited from earlier work
[2] = Feeding experiment: body weight and body fat (DEXA) in rats; format: in vivo, Sprague-Dawley (SD) rats; details: high fat diet (34% fat), 0.1% by weight in chow, 8 weeks, male SD rats
Experimental: For the present experiments, the compound to be tested is added to the feed of the individuals. This is beneficial against enforcement because it allows a validation of the acceptance of the test compounds. The experiments are performed with negative control and are correlated to a commercial slimming product.
Cynaropicrin is tested using six weeks old, none-adult, male Sprague-Dawley (SD) rats (Charles Rivers, Sulzfeld, Germany). Cynaropicrin is mixed with the chow (ssniff Spezial-diäten GmbH, Soest, Germany) to a final concentration of 0.1% by weight and fed for 8 weeks in two different treatment regimes: • Balanced diet (standardised to 4% fat) • High fat diet (standardised to 34% fat)
Controls obtain the same diet without Cynaropicrin or other anti-obesity additives.
Body weight is studied and analysed every week, body fat and mineral bone density are analysed by DEXA (scanner, see Example 3) in week 0, in week 4 and at the last day of the study in week 8. Furthermore, the white body fat weight is determined after removal of the tissue at the end of the feeding study in week 8. For the DEXA measurements the same apparatuses and methodology are used as described in example 3.
The GE Lunar Piximus2 DEXA scanner (GE Healthcare, Munich, Germany) gives accurate information on differences in body composition in mice (see Nagy, T R and Clair, A-L. Precision and accuracy of dual-energy X-ray absorptiometry for determining in vivo body composition in mice. Obesity Res. 2000; 8:392-398; Brommage Am J Physiol Endocrinol Metab 285: E454-E459, 2003). Validation and calibration of DEXA body composition in mice; Sarah L. Johnston, Wendy L. Peacock, Lynn M. Bell, Michel Lonchampt, and John R. Speakman, Obesity Research 2005 13 (9), 1558). One scanning procedure takes up to five minutes per individual and provides data on fat mass, lean mass, bone mineral content and bone mineral density. The method is validated against Soxhlet (SOX) fat extraction in mice and a strong correlation (r 2>0.95) between fatDEXA and fatSOX is determined (published information).
As a control experiment within the high fat diet, epigallocatechin-3-gallate (EGCG, Chengdu Purification Technology Development Co. Ltd, Chengdu, China) in pure form is used as the standard for comparison of potency and differentiation as well as benchmark against competing compounds or formulations against obesity. […] EGCG is marketed as a functional food ingredient claiming an anti-obesity effect (Wolfram, S et al. Mol Nutr Food Res 2006; 50(2):176-87; Wolfram, S et al. Ann Nutr Metab 2005; 49(1):54-6, Klaus, S et al. Int J Obes 2005; 29(6):615-23; Hill, A M et al. J Am Coil Nutr. 2007; 26(4):396S-402S). The final concentration of EGCG used is 0.1%, too.

[3] = Clinical blood chemistry of the rat study; format: in vivo; details: rats under high fat (HF) diet
Experimental: The following parameters are involved in energy metabolism and thereby related to the metabolic syndrome. They are determined from blood samples taken in week 1; 4; and 8 of the rat study: Total cholesterol levels; HDL, LDL, TG (triglycerides), and glucose. Furthermore, the activity of liver enzymes such as ALT (alanin-aminotransferase), AST (aspartat-aminotransferase), and AP (alkaline phosphatase), as well as the concentration of Bilirubin, Albumin, Creatin Kinase, and electrolytes (Na+; K+; Ca++; Cl−) are determined as safety markers to exclude any toxic effects such as e.g. liver damage.
Blood samples are taken from the sublingual vein and collected in Li-Heparin coated vials. The blood samples are stored on ice for a short period of time before it is centrifuged for 15 minutes at 8° C. and 3500 rpm. The supernatant plasma is transferred in a reaction tube and stored at −80° C. until clinical chemistry measurements are performed. All measurements are conducted using an Olympus AU 400 at the gene centre of the LMU Munich, working group of Prof. Wolf. Statistical calculations are performed with Statistika (Statsoft (Europe) GmbH, Hamburg, Germany) und Sigma Stat (Jandel Scientific, San Raphael, Calif., USA).

[4] = Pathological parameters: macroscopic organ inspection and kidney histo-pathology; format: in vivo; details: rat feeding study
Experimental: Main organs are analysed macroscopically for safety reasons and to investigate the effects of the different diets on these organs (e.g. induction of […] (“fatty”) livers etc.). After organ removal, macroscopic inspections of e.g. heart, kidneys; GI tract, spleen, liver are performed.

[5] = tested on: Mealworm (Tenebrio molitor); details: cited from earlier work

Compound | serum TG, long term [1] | body fat accumulation (DEXA) in comparison to the control groups [2] | body weight accumulation in comparison to the control groups [2] | antifeeding activity [5] | larval growth [5] | lipid levels in blood [5] | also measured
C=C(C)C(=O)O[C@H]1CC(=C)[C@@H]2C[C@H](O)C(=C)[C@@H]2[C@H]2OC(=O)C(=C)[C@@H]21 [aguerine B, reference compound] | increase | – | – | – | – | – | –
C=C(CO)C(=O)OC1CC(=C)C2CC(O)C(=C)C2C2OC(=O)C(=C)C12 (centres unmarked) [Cynaropicrin, (8-hydroxy-3,6,9-trimethylidene-2-oxo-3a,4,5,6a,7,8,9a, 9b-octahydroazuleno[4,5-b]furan-4-yl) 2-(hydroxymethyl)prop-2-enoate] | increase | reduced body fat accumulation | reduced body weight accumulation | – | – | – | total cholesterol:HDL/LDL ratio compared to the control group (HF only) [3]: improved; macroscopic inspection of main organs (heart, kidneys, GI tract, spleen, liver) ([4]; after organ removal): no significant alterations; histo-pathological analysis of the kidneys (morphology and function) [4]: does not result in any observation of an adverse effect
C=C1C(=O)O[C@H]2[C@H]1[C@@H](OC(=O)[C@]1(C)CO1)CC(=C)[C@@H]1C[C@H](O)[C@]3(CO3)[C@H]21 [repin, reference compound] | – | – | – | antifeeding activity | inhibition of larval growth | no effect | –
C=C1CC(O)C2C(=C)C(=O)OC2C2C(C)C(=O)CC12 (centres unmarked) [Grossheimin, 4-hydroxy-9-methyl-3,6-dimethylene-3a,4,5,6a,7,9,9a,9b-octahydroazuleno[5,4-d]furan-2,8-dione] | – | – | – | no anti-feeding | inhibition of larval growth | no effect | absorption of digested food constituents [5]: little decrease; efficiency in digesting [5]: little decrease
epigallocatechin-3-gallate [EGCG, reference compound] | – | No effects | No effects | – | – | – | –
